# Assay results: patent US20110305703A1, “ISOLATED VEGF-C AND VEGF-D PEPTIDES AND USES THEREOF” (Vegenics Pty Limited, priority 2008, published 2011)
# Primed or numbered codes have the meaning given here. No end group written: not given here. *: point of attachment. Biotin = O=C1N[C@H]2[C@H](CS[C@H]2CCCCC(=O)*)N1; Biotin′ = not defined here
# Tested on: VEGF-D neutralizing monoclonal antibody mAb 4A5 (VDnmAb)
# Experiment: ELISA of biotinylated synthetic peptides on streptavidin plates for VDnmAb binding
# Details: 1st peptide library; 10 pmol peptide; VDnmAb 2 μg/ml; signal more than two-fold greater than background considered positive
# From the text: Peptides. A series of synthetic 15-mer peptides (peptides 1 to 35, SEQ ID NOs: 4 to 38 in FIG. 4B, which overlap each other by 12 amino acids) were synthesized (Mimotopes Pty Ltd, Melbourne, Australia). The peptides encompassed the VHD of human VEGF-D (SEQ ID NO: 3, FIG. 4A). Peptide 36 (SEQ ID NO: 39) represented an artificial sequence including a FLAG tag as a positive control for a commercial anti-FLAG mAb (M2; Sigma) that was used as control for non-specific binding to peptides 1 to 35 (SEQ ID NOs: 4 to 38). Biotin was included at the N-terminal of each peptide during synthesis, except that peptide 1 (SEQ ID NO: 4, representing the N-terminal of the VHD) has biotin at the C-terminal. The four-amino acid linker “SGSG” was introduced between the N-terminal of each peptide sequence and biotin to provide more flexibility to peptides after immobilization on streptavidin plates, except peptide 1 (SEQ ID NO: 4) that included the C-terminal linker “GSG”.
# ELISA. Reacti-Bind streptavidin high-binding-capacity coated plates (Pierce) were coated with 10 pmol of each peptide in PBS, blocked with 5% milk in PBS-0.1% Tween 20, and incubated with 100 μl of VEGF-D neutralizing monoclonal antibody mAb 4A5 (referred to herein as VDnmAb) or M2 at 2 μg/ml for 1 h at room temperature. Bound mAb was detected with goat anti-mouse IgG coupled with HRP. ABTS was used as the substrate, and the absorbance was read at 405 nm in a multiwell plate reader.
# In this 2nd peptide library, biotin was included at the N-terminal of each peptide, and the four-amino acid linker “SGSG” was introduced between each peptide sequence and the biotin residue to provide more flexibility to peptides after immobilization on streptavidin plates. ELISA-based analysis of the 2nd peptide library was carried out as for the 1st peptide library.
# Peptide 67 (SEQ ID NO: 141, the same as peptide 36, SEQ ID NO: 39 from the 1st library) and peptide 68 (SEQ ID NO: 142), both containing the FLAG tag, were used as controls. In this 3rd peptide library, biotin was included at the N-terminal of each peptide except peptides 6, 12 and 14 (SEQ ID NOs: 80, 86 and 88) which have C-terminal biotin residues. To provide more flexibility to peptides after immobilization on streptavidin plates, an amino acid linker was introduced between biotin residues and the peptide sequence: “SGSG” for N-terminal biotin; “SGS” for C-terminal biotin. ELISA-based analysis of the 3rd peptide library was carried out as for the 1st peptide library, described in Example 1.
row,Substance,"VDnmAb binding to peptide (ELISA signal, absorbance at 405 nm)"
1,"peptide 16 (SEQ ID NO: 19): 1st library 15-mer which lacks the three C-terminal residues of peptide 17, SEQ ID NO: 20 (SGSGPPCVNVFRCGGCCNE)",does not bind VDnmAb
2,"VNVFRCGGCCNEESL (Biotin-SGSGVNVFRCGGCCNEESL; cysteine pairing not given here) [peptide 17 (SEQ ID NO: 20), residues 137 to 151 of human VEGF-D, N-terminal biotin and SGSG linker]",the strongest
3,"FRCGGCCNEESLICM (Biotin-SGSGFRCGGCCNEESLICM; cysteine pairing not given here) [peptide 18 (SEQ ID NO: 21), residues 140 to 154 of human VEGF-D, N-terminal biotin and SGSG linker]",positive

# Same assay, conditions: 2nd peptide library; 10 pmol peptide; VDnmAb 2 μg/ml; signal more than two-fold greater than background considered positive
row,Substance,"VDnmAb binding to peptide (ELISA signal, absorbance at 405 nm)"
1,peptide 25 (SEQ ID NO: 64): 2nd library: mutation of two of the cysteine residues to serine (SGSGVNVFRCGGSSNEESL),more effect
2,peptide 28 (SEQ ID NO: 67): 2nd library: mutation of all three cysteine residues to serine (SGSGVNVFRSGGSSNEESL),significant loss of antibody binding
3,peptide 26 (SEQ ID NO: 65): 2nd library: mutation of two of the cysteine residues to serine (SGSGVNVFRSGGSCNEESL),more effect
4,peptide 18 (SEQ ID NO: 57): peptide 14 (SEQ ID NO: 53) with deletion of the leucine residue corresponding to position 151 (SGSGVFRCGGCCNEES),complete loss of VDnmAb binding
5,"NVFRCGGCCNEESL (Biotin-SGSGNVFRCGGCCNEESL; cysteine pairing not given here) [peptide 13 (SEQ ID NO: 52), residues 138 to 151 of human VEGF-D, N-terminal biotin and SGSG linker]",positive
6,"VNVFRCGGCCNEESL (Biotin-SGSGVNVFRCGGCCNEESL; cysteine pairing not given here) [peptide 17 (SEQ ID NO: 20), residues 137 to 151 of human VEGF-D, N-terminal biotin and SGSG linker]",bound to VDnmAb
7,"30 (SEQ ID NO: 69): from mouse VEGF-D, homologous to Peptide 31 (SEQ ID NO: 70): serine 150 to glycine, leucine 151 to valine (Biotin-SGSGVNVFRCGGCCNEEGV; cysteine pairing not given here)",complete loss of VDnmAb binding
8,"peptide 24 (SEQ ID NO: 63): 2nd library: single mutation of cysteine in the binding region, C142S (SGSGVNVFRSGGCCNEESL)",very minor or no effect on VDnmAb binding
9,"VFRCGGCCNEESL (Biotin-SGSGVFRCGGCCNEESL; cysteine pairing not given here) [peptide 14 (SEQ ID NO: 53), residues 139 to 151 of human VEGF-D, N-terminal biotin and SGSG linker]",the strongest
10,"FRCGGCCNEESL (Biotin-SGSGFRCGGCCNEESL; cysteine pairing not given here) [peptide 15 (SEQ ID NO: 54), residues 140 to 151 of human VEGF-D, 2nd library, N-terminal biotin and SGSG linker]",positive

# Same assay, conditions: 3rd peptide library; 10 pmol peptide; VDnmAb 2 μg/ml; signal more than two-fold over background considered positive
row,Substance,"VDnmAb binding to peptide (ELISA signal, absorbance at 405 nm)"
1,"peptide 28 (SEQ ID NO: 102): 3rd library: variant with deletion of one of N147, E148, E149, S150 (SGSGVFRCGGCCNESL)",loss of VDnmAb binding
2,peptide 26 (SEQ ID NO: 100): 3rd library: mutation E148D (SGSGVFRCGGCCNDESL),"loss, even complete loss, of VDnmAb binding"
3,"peptide 4 (SEQ ID NO: 78): 3rd library: variant with deletion of one of N147, E148, E149, S150 (SGSGVFRCGGCCNEEL)",loss of VDnmAb binding
4,peptide 18 (SEQ ID NO: 92): 3rd library: mutation F140A (SGSGVARCGGCCNEESL),little or no effect on VDnmAb binding
5,peptide 7 (SEQ ID NO: 81): 3rd library: mutation of residue 151 to valine (SGSGVFRCGGCCNEESV),decreased VDnmAb binding
6,peptide 2 (SEQ ID NO: 76): 3rd library: variant of VFRCGGCCNEESL with mutation S150A (SGSGVFRCGGCCNEEAL),reduced VDnmAb binding somewhat
7,peptide 58 (SEQ ID NO: 132): 3rd library: deletion of most of the cysteine and glycine residues at positions 142 to 146 (Biotin-SGSGNVFNEESL),"loss, but not complete loss, of binding"
8,peptide 24 (SEQ ID NO: 98): 3rd library: mutation N147A (SGSGVFRCGGCCAEESL),"loss, even complete loss, of VDnmAb binding"
9,"peptide 25 (SEQ ID NO: 99): 3rd library: variant with deletion of one of N147, E148, E149, S150 (SGSGVFRCGGCCEESL)",loss of VDnmAb binding
10,peptide 17 (SEQ ID NO: 91): 3rd library: mutation F140Y (SGSGVYRCGGCCNEESL),little or no effect on VDnmAb binding
11,peptide 3 (SEQ ID NO: 77): 3rd library: variant of VFRCGGCCNEESL with mutation S150T (SGSGVFRCGGCCNEETL),"loss, even complete loss, of VDnmAb binding"
12,peptide 30 (SEQ ID NO: 104): 3rd library: mutation E149A (SGSGVFRCGGCCNEASL),"loss, even complete loss, of VDnmAb binding"
13,RCGGCCNEESL [peptide 14 (SEQ ID NO: 88)] (RCGGCCNEESLSGS-{Biotin′}; cysteine pairing not given here),decreases in VDnmAb binding
14,peptide 31 (SEQ ID NO: 105): 3rd library: double mutation E148D/E149D (SGSGVFRCGGCCNDDSL),"loss, even complete loss, of VDnmAb binding"
15,peptide 27 (SEQ ID NO: 101): 3rd library: mutation E148A (SGSGVFRCGGCCNAESL),"loss, even complete loss, of VDnmAb binding"
16,"peptide 33 (SEQ ID NO: 107): 3rd library: variant with deletion of one of N147, E148, E149, S150 (SGSGVFRCGGCCNSL)",loss of VDnmAb binding
17,peptide 20 (SEQ ID NO: 94): 3rd library: mutation R141K (SGSGVFKCGGCCNEESL),more pronounced effect
18,peptide 19 (SEQ ID NO: 93): 3rd library: deletion of F140 (SGSGVRCGGCCNEESL),little or no effect on VDnmAb binding
19,peptide 1 (SEQ ID NO: 75): 3rd library: variant of VFRCGGCCNEESL with mutation S150C (SGSGVFRCGGCCNEECL),"loss, even complete loss, of VDnmAb binding"

# Same assay, conditions: 3rd peptide library; 10 pmol peptide; VDnmAb 2 μg/ml; signal more than two-fold over background considered positive; listed as peptide 5 (SEQ ID NO: 79)
row,Substance,"VDnmAb binding to peptide (ELISA signal, absorbance at 405 nm)"
1,"VFRCGGCCNEESL (Biotin-SGSGVFRCGGCCNEESL; cysteine pairing not given here) [peptide 14 (SEQ ID NO: 53), residues 139 to 151 of human VEGF-D, N-terminal biotin and SGSG linker]",bound to VDnmAb
